These are literature values, as cited in US20020013320A1, “Use of growth hormone secretagogues to treat systemic lupus erythematosus and inflammatory bowel disease” (priority 2000, published 2002).

For series [1] the following is noted: adult female rats.
The conditions of series [2]: oral treatment, obese young males.
For series [3] the following is noted: canines during remobilization.

Where a SMILES comes first, the peptide text is derived from it. [ ]: non-standard residue; d: D form. d2Nal = N[C@H](Cc1ccc2ccccc2c1)C(=O)O; Aib = CC(C)(N)C(=O)O

For the compound `CC(C)(N)C(=O)N[C@@H](Cc1c[nH]cn1)C(=O)N[C@H](Cc1ccc2ccccc2c1)C(=O)N[C@H](Cc1ccccc1)C(=O)N[C@@H](CCCCN)C(N)=O` [Ipamorelin] (H-[Aib]H[d2Nal][dF]K-NH2), the bone mass entry in series [1] is given as “have the capacity to increase bone mass”. Consider `CC(C)(N)C(=O)N[C@H](COCc1ccccc1)C(=O)N1CCC2(CC1)CN(S(C)(=O)=O)c1ccccc12` [MK-0677], for which the “markers of bone formation and bone resorption” value in series [2] is “increases”. For the same compound, in series [3], the “levels of serum insulin-like growth factor-1” value is on record as “elevated”; the “size and strength of the quadriceps muscle” value was “increased”. Regarding GHRP-6, in series [1], the bone mass entry is reported as “have the capacity to increase bone mass”.
